Assay results: ChEMBL document CHEMBL1201862, “PubChem BioAssay data set” (2004)
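Tested at 5 concentrations; 48 h exposure; 96-well plates; endpoints linearly interpolated, else capped at highest concentration. Abbreviation: GI50, concentration required for 50% inhibition of growth.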 Calls of active or inactive are those of the source. Cut-off read from the data, not from the text of the source: active = GI50 up to about 1.1 µM and inactive = higher.

Experiments:
Assay in all cases: NCI tumour cell line growth inhibition, 48 h
[1] = system: PC-3
[2] = system: CAKI-1
[3] = system: OVCAR-3
[4] = system: SK-MEL-2
[5] = system: BT-549
[6] = system: NCI-H460
[7] = system: UACC-62
[8] = system: KM12
[9] = system: NCI-H522
[10] = system: MCF7
[11] = system: SF-539
[12] = system: HCT-116
[13] = system: HT-29
[14] = system: HCT-15
[15] = system: HOP-62
[16] = system: RPMI-8226
[17] = system: TK-10
[18] = system: HOP-92
[19] = system: T47D

SMILES	GI50 [1]	GI50 [2]	GI50 [3]	GI50 [4]	GI50 [5]	GI50 [6]	GI50 [7]	GI50 [8]	GI50 [9]	GI50 [10]	GI50 [11]	GI50 [12]	GI50 [13]	GI50 [14] [µM]	GI50 [15]	GI50 [16]	GI50 [17]	GI50 [18]	GI50 [19]
COC(=O)[C@](NC(=O)OCc1ccccc1)([C@@H](C)Sc1ccc(C)cc1)C(F)(F)F	43 µM (inactive)	57.5 µM (inactive)	> 100 µM (inactive)	> 100 µM (inactive)	34.9 µM (inactive)	34.5 µM (inactive)	39.2 µM (inactive)	42.7 µM (inactive)	25.1 µM (inactive)	28.9 µM (inactive)	69.3 µM (inactive)	35.4 µM (inactive)	34.7 µM (inactive)	27.5	> 100 µM (inactive)	29.2 µM (inactive)	–	–	–
CN(C)CCNC(=O)c1cccc2c(NC(CS)C(=O)O)c3ccccc3nc12 (centres undefined)	6.07 µM (inactive)	5.75 µM (inactive)	13 µM (inactive)	12.1 µM (inactive)	14.5 µM (inactive)	15 µM (inactive)	21.6 µM (inactive)	8.47 µM (inactive)	4.19 µM (inactive)	2.95 µM (inactive)	2.41 µM (inactive)	4.73 µM (inactive)	4.94 µM (inactive)	3.72	5.32 µM (inactive)	7.52 µM (inactive)	28.8 µM (inactive)	19.9 µM (inactive)	–
COc1cc(/C=C2\Sc3scc(-c4cccc([N+](=O)[O-])c4)[n+]3C2=O)cc(OC)c1OC	21.4 µM (inactive)	5.98 µM (inactive)	15.8 µM (inactive)	17 µM (inactive)	–	11 µM (inactive)	11.3 µM (inactive)	17.8 µM (inactive)	4.67 µM (inactive)	4.15 µM (inactive)	8.89 µM (inactive)	11.1 µM (inactive)	13.1 µM (inactive)	–	16.6 µM (inactive)	4.06 µM (inactive)	10.7 µM (inactive)	11.3 µM (inactive)	5.56 µM (inactive)
C#CCNC(=O)NCCCCC(NC(C)=O)C(=O)NCc1ccccc1 (centres undefined)	–	> 100 µM (inactive)	> 100 µM (inactive)	–	–	> 100 µM (inactive)	> 100 µM (inactive)	> 100 µM (inactive)	> 100 µM (inactive)	–	> 100 µM (inactive)	> 100 µM (inactive)	> 100 µM (inactive)	> 100	> 100 µM (inactive)	> 100 µM (inactive)	> 100 µM (inactive)	> 100 µM (inactive)	–
CCO/C=C(\C(=O)OC)S(=O)(=O)c1ccc(C)cc1	> 100 µM (inactive)	–	> 100 µM (inactive)	> 100 µM (inactive)	–	> 100 µM (inactive)	> 100 µM (inactive)	> 100 µM (inactive)	> 100 µM (inactive)	> 100 µM (inactive)	> 100 µM (inactive)	> 100 µM (inactive)	> 100 µM (inactive)	> 100	> 100 µM (inactive)	> 100 µM (inactive)	> 100 µM (inactive)	> 100 µM (inactive)	> 100 µM (inactive)
CC(=O)NC(C)c1ccc(/N=N/N2CCCC2)cc1 (centres undefined)	> 100 µM (inactive)	> 100 µM (inactive)	> 100 µM (inactive)	> 100 µM (inactive)	–	–	–	> 100 µM (inactive)	> 100 µM (inactive)	> 100 µM (inactive)	> 100 µM (inactive)	> 100 µM (inactive)	> 100 µM (inactive)	> 100	> 100 µM (inactive)	–	> 100 µM (inactive)	> 100 µM (inactive)	> 100 µM (inactive)
Cc1cc(C)c(-c2noc(-c3ccc(Cl)cc3)c2C2=NCCN2)c(C)c1	–	76.4 µM (inactive)	21 µM (inactive)	22.6 µM (inactive)	–	13.8 µM (inactive)	16.8 µM (inactive)	21.6 µM (inactive)	> 10 µM (inactive)	–	16.8 µM (inactive)	12.1 µM (inactive)	13.3 µM (inactive)	22.2	22.1 µM (inactive)	17.9 µM (inactive)	–	–	–
CC(C)C(Br)CCC1=CCC(Br)(Br)C1 (centres undefined)	14.9 µM (inactive)	17.2 µM (inactive)	13 µM (inactive)	5.77 µM (inactive)	20.2 µM (inactive)	16.7 µM (inactive)	6.58 µM (inactive)	13.3 µM (inactive)	2.35 µM (inactive)	10.8 µM (inactive)	19.2 µM (inactive)	14.6 µM (inactive)	13.5 µM (inactive)	–	17 µM (inactive)	–	17.5 µM (inactive)	5.2 µM (inactive)	–
O=C(CSc1nc2ccc(I)cc2c(=O)n1Cc1ccccc1)N/N=C/c1ccccc1	10.3 µM (inactive)	4.01 µM (inactive)	11.6 µM (inactive)	12 µM (inactive)	–	27 µM (inactive)	39.2 µM (inactive)	48.8 µM (inactive)	18.1 µM (inactive)	25.2 µM (inactive)	26.9 µM (inactive)	33.9 µM (inactive)	47.6 µM (inactive)	22.1	6.82 µM (inactive)	82.4 µM (inactive)	15.2 µM (inactive)	11.5 µM (inactive)	23.1 µM (inactive)
